{"source": "paper PMC11249953", "about": "“c-KIT inhibitors reduce pathology and improve behavior in the Tg(SwDI) model of Alzheimer’s disease” (Life Science Alliance, 2024)", "key": {"TgAPP mice": {"tested_on": "TgAPP mice", "assay": "Morris water maze, TgAPP mice", "format": "in vivo, mouse", "parameters": "Platform Distance: unit not given beside the values; Total Distance / Quad Time / Quad Distance / Trial 1 D4 / Trial 1 D4 AVG: unit not given here", "experimental": "The Morris water maze was performed using a water bath 6 ft in diameter and filled with roughly 1 ft of water. The maze was divided into four quadrants, each with a visual stimulus positioned on the wall of the maze in the center of the quadrant arc. A clear platform was placed in one quadrant just beneath the surface of the water. Mice were then placed in a random non-platform quadrant and allowed to swim freely for 60 s (time was stopped and recorded if the mouse found the platform) before being placed on the platform for 15 s and returned to their cage. This was repeated for each of the three quadrants each day for 4 d. On the 5th d, the platform was removed and mice were placed in the quadrant opposite of where the platform had been and allowed to swim freely for 1 min before being returned to their cage. Time spent in the correct quadrant, latency to the platform, number of platform entries, and number of quadrant entries were recorded."}, "KIT": {"molecular_target": "T1, KIT (Homo sapiens, UniProt P10721)", "T1 construct": "DNA label for qPCR read-out (T7 phage fusion or DNA tag); purchased Eurofins DiscoverX Corporation; host or cells: T7 phage in E. coli (BL21-derived) or HEK-293", "T1 sequence (P10721 26-976)": "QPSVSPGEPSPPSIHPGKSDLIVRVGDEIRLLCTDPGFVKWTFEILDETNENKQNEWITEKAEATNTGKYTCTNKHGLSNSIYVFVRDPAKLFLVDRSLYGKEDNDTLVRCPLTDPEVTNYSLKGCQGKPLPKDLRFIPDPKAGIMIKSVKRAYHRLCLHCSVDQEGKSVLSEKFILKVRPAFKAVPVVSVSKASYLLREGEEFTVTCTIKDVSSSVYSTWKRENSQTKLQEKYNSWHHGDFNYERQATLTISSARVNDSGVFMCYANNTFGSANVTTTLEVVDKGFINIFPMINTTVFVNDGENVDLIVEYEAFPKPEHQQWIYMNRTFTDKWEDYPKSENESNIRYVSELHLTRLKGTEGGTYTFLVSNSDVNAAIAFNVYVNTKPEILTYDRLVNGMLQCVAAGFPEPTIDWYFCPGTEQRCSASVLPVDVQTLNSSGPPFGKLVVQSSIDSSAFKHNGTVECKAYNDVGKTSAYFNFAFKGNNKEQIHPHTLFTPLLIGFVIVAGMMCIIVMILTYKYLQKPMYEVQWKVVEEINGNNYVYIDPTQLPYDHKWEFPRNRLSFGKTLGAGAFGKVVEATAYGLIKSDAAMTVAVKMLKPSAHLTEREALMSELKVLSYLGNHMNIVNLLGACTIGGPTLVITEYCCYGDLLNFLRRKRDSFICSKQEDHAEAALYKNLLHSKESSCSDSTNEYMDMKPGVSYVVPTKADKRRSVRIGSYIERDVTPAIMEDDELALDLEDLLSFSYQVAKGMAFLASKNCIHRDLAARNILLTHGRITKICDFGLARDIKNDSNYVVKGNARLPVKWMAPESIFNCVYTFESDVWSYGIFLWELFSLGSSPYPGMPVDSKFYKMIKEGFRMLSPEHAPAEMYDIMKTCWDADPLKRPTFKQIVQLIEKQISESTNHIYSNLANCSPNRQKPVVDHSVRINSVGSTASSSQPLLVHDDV", "assay": "KINOMEscan competition binding, KIT", "conditions": "10 µM compound", "experimental": "(§1) The KINOMEscan screening platform (Eurofins DiscoverX Corporation) was performed using active site-directed competition binding assay to quantitatively measure interactions between BK40143 and BK40197 and more than 450 human kinases and disease relevant mutant variants. […] Screening “hits” are identified by measuring the amount of kinase captured in test (BK40143 and BK40197) versus control samples by using a quantitative and ultra-sensitive qRT-PCR method that detects the associated DNA label. BK40143 and BK40197 were screened at 10 µM concentration, and results for primary screen binding interactions were reported as “% Ctrl” (POC), where lower numbers indicate stronger hits and calculated as follows: [test compound signal−positive control signal/negative control signal−positive control signal]×100\n(§2) negative control = DMSO (100% Ctrl)\n(§3) positive control = control compound (0% Ctrl)\n(§4) Based on screening data from of profiled compounds, a proportional relationship between primary screening results and corresponding compound/target affinities can be described as binding constants (Kd values) for the indicated ranges of POC values with tighter binding (higher affinity) interactions associated with lower POC values and weaker binding (lower affinity) associated with higher POC values. Briefly, kinase-tagged T7 phage strains were grown in parallel in 24-well blocks in an E. coli host derived from the BL21 strain. E. coli were grown to log-phase and infected with T7 phage from a frozen stock (multiplicity of infection = 0.4) and incubated with shaking at 32°C until lysis (90–150 min). The lysates were centrifuged (6,000g) and filtered (0.2 μm) to remove cell debris. The remaining kinases were produced in HEK-293 cells and subsequently tagged with DNA for qRT-PCR detection. Streptavidin-coated magnetic beads were treated with biotinylated small molecule ligands for 30 min at RT to generate affinity resins for kinase assays. The liganded beads were blocked with excess biotin and washed with blocking buffer (1% BSA, 0.05% Tween 20, 1 mM DTT; SeaBlock [Pierce]) to remove unbound ligand and to reduce non-specific phage binding. Binding reactions were assembled by combining kinases, liganded affinity beads, and test compounds in 1x binding buffer (20% 0.17x PBS, 0.05% Tween 20, 6 mM DTT; SeaBlock). Test compounds were prepared as 100x stocks in 100% DMSO and directly diluted into the assay. All reactions were performed in polypropylene 384-well plates in a final volume of 0.02 ml. The assay plates were incubated at RT with shaking for 1 h and the affinity beads were washed with wash buffer (1x PBS, 0.05% Tween 20). […] The kinase concentration in the eluates was measured by qRT-PCR."}, "ABL1": {"molecular_target": "T2, ABL1 (Homo sapiens, UniProt P00519)", "T2 construct": "DNA label for qPCR read-out (T7 phage fusion or DNA tag); purchased Eurofins DiscoverX Corporation; host or cells: T7 phage in E. coli (BL21-derived) or HEK-293", "assay": "KINOMEscan competition binding, ABL1", "conditions": "10 µM compound", "experimental": "as §1, §2, §3, §4"}, "MTOR": {"molecular_target": "T3, MTOR (Homo sapiens, UniProt P42345)", "T3 construct": "DNA label for qPCR read-out (T7 phage fusion or DNA tag); purchased Eurofins DiscoverX Corporation; host or cells: T7 phage in E. coli (BL21-derived) or HEK-293", "assay": "KINOMEscan competition binding, MTOR", "conditions": "10 µM compound", "experimental": "as §1, §2, §3, §4"}, "KIT (V559D)": {"molecular_target": "T4, KIT (V559D) (Homo sapiens, UniProt P10721, V559D)", "T4 construct": "DNA label for qPCR read-out (T7 phage fusion or DNA tag); purchased Eurofins DiscoverX Corporation; host or cells: T7 phage in E. coli (BL21-derived) or HEK-293", "T4 sequence (P10721 26-976 V559D)": "as the sequence (P10721 26-976) above, with V534D counted along it", "assay": "KINOMEscan competition binding, KIT (V559D)", "conditions": "10 µM compound", "experimental": "as §1, §2, §3, §4"}, "PDGFRb": {"molecular_target": "T5, PDGFRb (Homo sapiens, UniProt P09619)", "T5 construct": "DNA label for qPCR read-out (T7 phage fusion or DNA tag); purchased Eurofins DiscoverX Corporation; host or cells: T7 phage in E. coli (BL21-derived) or HEK-293", "T5 sequence (P09619 33-1106)": "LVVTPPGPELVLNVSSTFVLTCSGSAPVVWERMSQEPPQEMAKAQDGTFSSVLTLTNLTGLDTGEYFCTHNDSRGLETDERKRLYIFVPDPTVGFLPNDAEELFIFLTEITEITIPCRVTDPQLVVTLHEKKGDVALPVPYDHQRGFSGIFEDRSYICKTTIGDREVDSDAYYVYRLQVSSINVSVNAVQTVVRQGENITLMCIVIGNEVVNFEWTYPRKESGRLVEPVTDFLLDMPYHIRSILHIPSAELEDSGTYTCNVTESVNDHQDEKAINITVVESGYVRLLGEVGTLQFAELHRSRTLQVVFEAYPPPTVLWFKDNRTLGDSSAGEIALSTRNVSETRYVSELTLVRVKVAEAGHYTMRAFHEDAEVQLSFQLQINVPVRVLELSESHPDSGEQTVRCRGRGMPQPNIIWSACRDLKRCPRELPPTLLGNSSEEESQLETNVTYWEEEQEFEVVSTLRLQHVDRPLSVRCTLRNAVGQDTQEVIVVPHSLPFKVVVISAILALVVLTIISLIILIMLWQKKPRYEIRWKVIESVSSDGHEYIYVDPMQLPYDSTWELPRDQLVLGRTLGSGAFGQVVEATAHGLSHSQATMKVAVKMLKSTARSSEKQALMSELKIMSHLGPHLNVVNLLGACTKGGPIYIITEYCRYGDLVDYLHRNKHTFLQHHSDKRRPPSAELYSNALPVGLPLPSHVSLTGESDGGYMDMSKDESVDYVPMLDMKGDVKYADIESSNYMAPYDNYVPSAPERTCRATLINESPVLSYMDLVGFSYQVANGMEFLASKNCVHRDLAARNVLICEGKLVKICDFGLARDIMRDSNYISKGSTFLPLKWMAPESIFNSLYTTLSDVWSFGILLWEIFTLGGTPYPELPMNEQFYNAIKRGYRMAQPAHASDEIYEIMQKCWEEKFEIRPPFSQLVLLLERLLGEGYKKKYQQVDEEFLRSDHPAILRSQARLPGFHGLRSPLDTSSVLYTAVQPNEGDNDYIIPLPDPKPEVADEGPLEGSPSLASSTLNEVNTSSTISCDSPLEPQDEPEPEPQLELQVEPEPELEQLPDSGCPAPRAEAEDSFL", "assay": "KINOMEscan competition binding, PDGFRb", "conditions": "10 µM compound", "experimental": "as §1, §2, §3, §4"}, "[1]": {"conditions": "MWM Probe, single animal values, listed as 197"}, "[2]": {"conditions": "MWM Probe, single animal values, listed as 197, in s (unit assumed)"}, "[3]": {"conditions": "MWM training, Day 1, single animal values, listed as 197"}, "[4]": {"conditions": "MWM training, Day 2, single animal values, listed as 197"}, "[5]": {"conditions": "MWM training, Day 3, single animal values, listed as 197"}, "[6]": {"conditions": "MWM training, Day 4, single animal values, listed as 197"}}, "note": "Values joined by “and” are separate entries in the source; they are usually repeats but may differ in a detail not shown here. Equal entries are not always repeated."}
{"smiles": "Cc1cccc(-c2cc3nccc(N4CCOCC4)c3s2)c1", "note": "[BK40197]", "values": [{"measurement": "Platform Distance", "setting": "TgAPP mice; [1]", "value": "0 and 0.487 and 0.423 and 1.393 and 0.128 and 0.196 and 0.299 and 0.391"}, {"measurement": "Platform Entries", "setting": "TgAPP mice; [1]", "value": "0 and 3 and 4 and 8 and 1 and 2"}, {"measurement": "Quad Distance", "setting": "TgAPP mice; [1]", "value": "2.071 and 3.416 and 4.643 and 7.432 and 1.451 and 3.963 and 3.288 and 3.437 and 3.953"}, {"measurement": "Quad Distance/Total", "setting": "TgAPP mice; [1]", "value": "0.09759 and 0.2373 and 0.3151 and 0.3933 and 0.09964 and 0.2157 and 0.2602 and 0.2506 and 0.2518"}, {"measurement": "Quad Entries", "setting": "TgAPP mice; [1]", "value": "3 and 7 and 8 and 16 and 5 and 6 and 4"}, {"measurement": "Quad Time", "setting": "TgAPP mice; [1]", "value": "9.1 and 12.9 and 22.8 and 25.1 and 6.9 and 11.1 and 16.2 and 14.3 and 14.6"}, {"measurement": "Total Distance", "setting": "TgAPP mice; [1]", "value": "21.221 and 14.396 and 14.736 and 18.898 and 14.562 and 18.377 and 12.635 and 13.714 and 15.701"}, {"measurement": "Platform Latency", "setting": "TgAPP mice; MWM Probe, single animal values, listed as 197, in s", "value": "60 and 2.1 and 31.3 and 11.1 and 21.2 and 56 and 26.7 and 7.2"}, {"measurement": "Platform Time", "setting": "TgAPP mice; [2]", "value": "0 and 1.9 and 1.5 and 5.2 and 0.3 and 0.7 and 1 and 1.4"}, {"measurement": "Quad Latency", "setting": "TgAPP mice; [2]", "value": "4.7 and 3 and 16.9 and 2.3 and 4.3 and 3.9 and 21.1 and 6.8 and 3.2"}, {"measurement": "Quad Time per Entry", "setting": "TgAPP mice; [2]", "value": "3.033 and 1.843 and 2.85 and 1.569 and 1.38 and 1.85 and 4.05 and 3.575 and 1.825"}, {"measurement": "Training Day 1 AVG", "setting": "TgAPP mice; MWM training, Day 1, group average", "value": 45.4333}, {"measurement": "Training Day 1, mean of the three trials per animal", "setting": "TgAPP mice; MWM training, Day 1, per-animal mean, listed as 197", "value": "43.78 and 60 and 43.62 and 54.8167 and 46.8067 and 44.7133 and 26.0367 and 29.1267"}, {"measurement": "Training Day 1, trial 1", "setting": "TgAPP mice; [3]", "value": "60 and 47.21 and 31.28 and 46.64"}, {"measurement": "Training Day 1, trial 2", "setting": "TgAPP mice; [3]", "value": "11.34 and 60 and 54.03 and 25.14 and 29.4"}, {"measurement": "Training Day 1, trial 4", "setting": "TgAPP mice; [3]", "value": "60 and 23.65 and 44.45 and 26.39 and 14.14 and 21.69 and 11.34"}, {"measurement": "Training Day 2 AVG", "setting": "TgAPP mice; MWM training, Day 2, group average", "value": 47.2204}, {"measurement": "Training Day 2, mean of the three trials per animal", "setting": "TgAPP mice; MWM training, Day 2, per-animal mean, listed as 197", "value": "13.1033 and 49.5833 and 60 and 36.82 and 56.3433 and 52.21 and 40.7533 and 56.17"}, {"measurement": "Training Day 2, trial 1", "setting": "TgAPP mice; [4]", "value": "7.57 and 60"}, {"measurement": "Training Day 2, trial 2", "setting": "TgAPP mice; [4]", "value": "5.62 and 60 and 36.25 and 49.03 and 36.63 and 55.69"}, {"measurement": "Training Day 2, trial 4", "setting": "TgAPP mice; [4]", "value": "26.12 and 28.75 and 60 and 14.21 and 6.57 and 48.51"}, {"measurement": "Training Day 3 AVG", "setting": "TgAPP mice; MWM training, Day 3, group average", "value": 28.2515}, {"measurement": "Training Day 3, mean of the three trials per animal", "setting": "TgAPP mice; MWM training, Day 3, per-animal mean, listed as 197", "value": "11.39 and 34.5433 and 18.6367 and 42.7367 and 27.2267 and 23.27 and 38.7467 and 28.4767 and 29.2367"}, {"measurement": "Training Day 3, trial 1", "setting": "TgAPP mice; [5]", "value": "9.97 and 10.56 and 13.44 and 8.21 and 13.9 and 27.12 and 60 and 23.21 and 11.51"}, {"measurement": "Training Day 3, trial 2", "setting": "TgAPP mice; [5]", "value": "6.2 and 40.75 and 11.22 and 60 and 7.78 and 16.82 and 30.27 and 28.53 and 34.18"}, {"measurement": "Training Day 3, trial 4", "setting": "TgAPP mice; [5]", "value": "18 and 52.32 and 31.25 and 60 and 25.87 and 25.97 and 33.69 and 42.02"}, {"measurement": "Trial 1 D4 AVG", "setting": "TgAPP mice; MWM training, Day 4, Trial 1, group average", "value": 16.0867}, {"measurement": "Trial 1 D4", "setting": "TgAPP mice; MWM training, Day 4, Trial 1, single animal values listed by group, listed as 197", "value": "29.9 and 18.58 and 17.08 and 9.97 and 12.28 and 11 and 6.82 and 20 and 19.15"}, {"measurement": "Training Day 4 AVG", "setting": "TgAPP mice; MWM training, Day 4, group average", "value": 27.9559}, {"measurement": "Training Day 4, mean of the three trials per animal", "setting": "TgAPP mice; MWM training, Day 4, per-animal mean, listed as 197", "value": "18.2367 and 14.52 and 22.8833 and 26.0267 and 20.9367 and 33.48 and 29.6433 and 39.9233 and 45.9533"}, {"measurement": "Training Day 4, trial 1", "setting": "TgAPP mice; [6]", "value": "33 and 13.59 and 44.97 and 60 and 41.71 and 20.44 and 36.65"}, {"measurement": "Training Day 4, trial 2", "setting": "TgAPP mice; [6]", "value": "17.08 and 9.97 and 12.28 and 11 and 6.82 and 20 and 19.15 and 29.9 and 18.58"}, {"measurement": "Training Day 4, trial 4", "setting": "TgAPP mice; [6]", "value": "4.63 and 20 and 11.4 and 7.08 and 14.28 and 60 and 9.78 and 53.22 and 59.28"}, {"measurement": "Morris water maze training trials: time to locate the platform", "setting": "TgAPP mice; TgAPP mice, BK40143 5 mg/kg, BK40197 45 mg/kg IP, 6 wk, vs DMSO", "value": "locate the platform significantly quicker on later training trials"}, {"measurement": "inhibition at 10 µM", "setting": "KIT", "value": 99.7, "unit": "%"}, {"measurement": "remaining binding at 10 µM", "setting": "KIT; lower = stronger binding, read-out: KIT %Ctrl @ 10000nM (POC)", "value": 0.3, "unit": "%"}, {"measurement": "inhibition at 10 µM", "setting": "ABL1", "value": 60, "unit": "%"}, {"measurement": "remaining binding at 10 µM", "setting": "ABL1; lower = stronger binding, read-out: ABL1 %Ctrl @ 10000nM", "value": 40, "unit": "%"}, {"measurement": "inhibition at 10 µM", "setting": "MTOR", "value": 90.7, "unit": "%"}, {"measurement": "remaining binding at 10 µM", "setting": "MTOR; lower = stronger binding, read-out: MTOR %Ctrl @ 10000nM (POC)", "value": 9.3, "unit": "%"}, {"measurement": "inhibition at 10 µM", "setting": "KIT (V559D)", "value": 99.7, "unit": "%"}, {"measurement": "remaining binding at 10 µM", "setting": "KIT (V559D); lower = stronger binding, read-out: KIT (V559D) %Ctrl @ 10000nM (POC)", "value": 0.35, "unit": "%"}, {"measurement": "inhibition at 10 µM", "setting": "PDGFRb", "value": 98.7, "unit": "%"}, {"measurement": "remaining binding at 10 µM", "setting": "PDGFRb; lower = stronger binding, read-out: PDGFRb %Ctrl @ 10000nM (POC)", "value": 1.3, "unit": "%"}]}
